Test results taken from US11618747B2, “LXR modulators with bicyclic core moiety” (OrsoBio, Inc., priority 2018, dated 2023).
Like-named read-outs stand apart in the source and are kept apart here.

Key:
[1] = target: T1, LXRβ ligand-binding domain (Homo sapiens, UniProt P55055, DUP175-175); test: TR-FRETβ activity assay (NCoA3 coactivator peptide recruitment); type: biochemical
T1 construct: amino acids 156-461; NP009052; made in house; host or cells: E. coli
T1 sequence (P55055 with tags, fused parts or gaps DUP175-175 limits assumed): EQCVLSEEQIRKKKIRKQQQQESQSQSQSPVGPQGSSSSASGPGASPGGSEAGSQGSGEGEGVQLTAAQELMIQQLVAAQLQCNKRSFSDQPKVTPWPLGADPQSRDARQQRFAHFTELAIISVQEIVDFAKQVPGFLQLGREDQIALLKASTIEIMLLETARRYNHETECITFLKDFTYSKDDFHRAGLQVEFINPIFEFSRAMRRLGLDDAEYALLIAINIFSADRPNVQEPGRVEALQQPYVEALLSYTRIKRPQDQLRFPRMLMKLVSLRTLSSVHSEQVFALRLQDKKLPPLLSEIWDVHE
In short: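 Inverse agonism assessed by loss of coactivator recruitment, read as TR-FRET 665/615 nm after 1 h equilibration at 4 °C, in triplicate. Ten-point titration from 50 μM to 0.002 μM against LXRβ LBD (76 nM, GST fusion) prestimulated with 1 μM 24(S)-25-epoxycholesterol, with 400 nM NCoA3 peptide, pH 6.8. Sulfonyl acetic acids kept as 20 mM DMSO stocks with 100 mM TFA.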

[2] = Short term HFD mouse model: plasma and liver exposure; type: in vivo, mice (C57BL/6J); settings: HFD mice, 4 h after last dose
Method: Short Term HFD Mouse Model:
The in vivo transcriptional regulation of several LXR target genes by LXR modulators was assessed in mice.
For this, C57BL/6J were purchased from Elevage Janvier (Rennes, France) at the age of 8 weeks. After an acclimation period of two weeks, animals were preferred on a high fat diet (HFD) (Ssniff Spezialdiäten GmbH, Germany, Surwit EF D12330 mod, Cat. No. E15771-34), with 60 kcal % from fat plus 1% (w/w) extra cholesterol (Sigma-Aldrich, St. Louis, Mo.) for 5 days. Animals were maintained on this diet during treatment with LXR modulators. The test compounds were formulated in 0.5% hydroxypropylmethylcellulose (HPMC) and administered in three doses (from 1.5 to 20 mg/kg each) by oral gavage according to the following schedule: on day one, animals received treatment in the morning and the evening (ca. 17:00), on day two animals received the final treatment in the morning after a 4 h fast and were sacrificed 4 h thereafter. Animal work was conducted according to the national guidelines for animal care in Germany.
Upon termination, liver was collected, dipped in ice cold PBS for 30 seconds and cut into appropriate pieces. Pieces were snap frozen in liquid nitrogen and stored at −80° C. For the clinical chemistry analysis from plasma, alanine aminotransferase (ALT, IU/mL), cholesterol (CHOL, mg/dL) and triglycerides (TG, mg/dL) were determined using a fully-automated bench top analyzer (Respons®910, DiaSys Greiner GmbH, Flacht, Germany) with system kits provided by the manufacturer.

[3] = TR-FRET, 1 μM 24(S)-25-epoxycholesterol prestimulation, read-out: FRETβ (EC50 range)

Cc1ccc(S(=O)(=O)n2c(-c3cccc(N4CC(C(=O)O)C4)c3)c(-c3ccsc3C#N)c3cc(F)ccc32)cc1 [3/32]
FRETβ efficacy (value in brackets) ([1]; 1 μM 24(S)-25-epoxycholesterol as prestimulating agonist): −98%
EC50 ([1]; 1 μM 24(S)-25-epoxycholesterol as prestimulating agonist, read-out: FRETβ potency): 551 nM
EC50 [1, 3]: 100 to 1000 nM

Cc1ccc(S(=O)(=O)n2c(-c3cccc(N4CC(C(=O)O)C4)c3)c(-c3ccsc3C#N)c3cc(F)c(F)cc32)cc1 [3/42]
EC50 [1, 3]: 1000 to 10000 nM

Cc1ccc(S(=O)(=O)n2c(-c3cccc(N4CC(C(=O)O)C4)c3)c(-c3ccsc3C#N)c3cc(F)c(Cl)cc32)cc1 [3/43]
EC50 [1, 3]: 1000 to 10000 nM

Cc1ccc(S(=O)(=O)n2c(-c3cccc(N4CC(C(=O)O)C4)c3)c(-c3ccsc3C#N)c3cc(Cl)ccc32)cc1 [3/44]
EC50 [1, 3]: 1000 to 10000 nM

Cc1ccc(S(=O)(=O)n2c(-c3cccc(N4CC(C(=O)O)C4)c3)c(-c3ccsc3C#N)c3cc(C)ccc32)cc1 [3/46]
EC50 [1, 3]: 100 to 1000 nM

Cc1ccc(S(=O)(=O)n2c(-c3cccc(-c4ccc(C(=O)O)cc4Cl)c3)c(-c3ccsc3C#N)c3cc(F)ccc32)cc1 [3/48]
EC50 [1, 3]: 100 to 1000 nM
liver exposure 4 h ([2]; three oral doses of 20 mg/kg): C (1 μM to ≤10 μM)
liver/plasma ratio 4 h ([2]; three oral doses of 20 mg/kg): C (30 to ≤100)
plasma exposure 4 h ([2]; three oral doses of 20 mg/kg): D (D: <100 nM)

O=C(O)c1ccc(-c2cccc(-c3c(-c4ccccc4C4COC4)c4cc(F)ccc4n3S(=O)(=O)c3ccc(C(F)F)cc3)c2)c(Cl)c1 [3/59]
EC50 [1, 3]: < 100 nM
liver exposure 4 h ([2]; three oral doses of 20 mg/kg): C (1 μM to ≤10 μM)
liver/plasma ratio 4 h ([2]; three oral doses of 20 mg/kg): B (5 to ≤30)
plasma exposure 4 h ([2]; three oral doses of 20 mg/kg): C (C: 100 nM to <300 nM)

Cc1ccc(S(=O)(=O)n2c(-c3cccc(C45CCC(C(=O)O)(CC4)CC5)c3)c(-c3ccsc3C#N)c3cc(F)ccc32)cc1 [3/64]
EC50 [1, 3]: 100 to 1000 nM
liver exposure 4 h ([2]; three oral doses of 20 mg/kg): D (>10 μM)
liver/plasma ratio 4 h ([2]; three oral doses of 20 mg/kg): D (>100)
plasma exposure 4 h ([2]; three oral doses of 20 mg/kg): C (C: 100 nM to <300 nM)

N#Cc1cccc(C#N)c1-c1c(-c2cccc(-c3c(F)cc(CC(=O)O)cc3F)c2)n(S(=O)(=O)c2ccc(C(F)F)cc2)c2ccc(F)cc12 [3/73]
EC50 [1, 3]: < 100 nM
liver exposure 4 h ([2]; three oral doses of 10 mg/kg): B (300 nM to ≤1 μM)
liver/plasma ratio 4 h ([2]; three oral doses of 10 mg/kg): C (30 to ≤100)
plasma exposure 4 h ([2]; three oral doses of 10 mg/kg): D (D: <100 nM)

Cc1ccc(S(=O)(=O)n2c(-c3cccc(-c4ccc(C(=O)O)cc4)c3)c(-c3ccsc3C#N)c3cc(F)ccc32)cc1 [5/3]
EC50 [1, 3]: 100 to 1000 nM
liver exposure 4 h ([2]; three oral doses of 20 mg/kg): C (1 μM to ≤10 μM)
liver/plasma ratio 4 h ([2]; three oral doses of 20 mg/kg): B (5 to ≤30)
plasma exposure 4 h ([2]; three oral doses of 20 mg/kg): D (D: <100 nM)

CC(=O)NS(=O)(=O)c1ccc(-c2cccc(-c3c(-c4c(C#N)cccc4C#N)c4cc(F)ccc4n3S(=O)(=O)c3ccc(C(F)F)cc3)c2)c(Cl)c1 [8/8]
EC50 [1, 3]: < 100 nM
liver exposure 4 h ([2]; three oral doses of 10 mg/kg): B (300 nM to ≤1 μM)
liver/plasma ratio 4 h ([2]; three oral doses of 10 mg/kg): B (5 to ≤30)
plasma exposure 4 h ([2]; three oral doses of 10 mg/kg): C (C: 100 nM to <300 nM)

N#Cc1cccc(C#N)c1-c1c(-c2cccc(-c3ccc(C(=O)NCCS(=O)(=O)O)cc3Cl)c2)n(S(=O)(=O)c2ccc(C(F)F)cc2)c2ccc(F)cc12 [10/1]
EC50 [1, 3]: < 100 nM
liver exposure 4 h ([2]; three oral doses of 10 mg/kg): B (300 nM to ≤1 μM)
liver/plasma ratio 4 h ([2]; three oral doses of 10 mg/kg): C (30 to ≤100)
plasma exposure 4 h ([2]; three oral doses of 10 mg/kg): D (D: <100 nM)

CN(CCS(=O)(=O)O)C(=O)c1ccc(-c2cccc(-c3c(-c4c(C#N)cccc4C#N)c4cc(F)ccc4n3S(=O)(=O)c3ccc(C(F)F)cc3)c2)c(Cl)c1 [10/2]
EC50 [1, 3]: < 100 nM
liver exposure 4 h ([2]; three oral doses of 10 mg/kg): D (>10 μM)
liver/plasma ratio 4 h ([2]; three oral doses of 10 mg/kg): B (5 to ≤30)
plasma exposure 4 h ([2]; three oral doses of 10 mg/kg): D (D: <100 nM)

N#Cc1nccnc1-c1c(-c2cccc(-c3cc(F)c(C(=O)O)cc3Cl)c2)n(S(=O)(=O)c2ccc(C(F)F)cc2)c2ccc(F)cc12 [11/11]
EC50 [1, 3]: < 100 nM
liver exposure 4 h ([2]; three oral doses of 20 mg/kg): D (>10 μM)
liver/plasma ratio 4 h ([2]; three oral doses of 20 mg/kg): D (>100)
plasma exposure 4 h ([2]; three oral doses of 20 mg/kg): D (D: <100 nM)

N#Cc1cccc(C#N)c1-c1c(-c2cccc(-c3ccc(C(=O)O)cc3Cl)c2)n(S(=O)(=O)c2ccc(C(F)F)cc2)c2ccc(F)cc12 [11/12]
EC50 [1, 3]: < 100 nM
liver exposure 4 h ([2]; three oral doses of 20 mg/kg): C (1 μM to ≤10 μM)
liver/plasma ratio 4 h ([2]; three oral doses of 20 mg/kg): C (30 to ≤100)
plasma exposure 4 h ([2]; three oral doses of 20 mg/kg): D (D: <100 nM)
